Source: PubChem BioAssay (NCI)
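48-hour exposure; five concentrations; linearly interpolated endpoints. GI50 is the concentration that inhibits growth by half. TGI marks complete inhibition of growth.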

Key:
Assay in all cases: NCI tumour cell line growth inhibition, 48 h
HOP-92 NSCLC = system: HOP-92 NSCLC
A498 renal = system: A498 renal
RPMI-8226 leukemia = system: RPMI-8226 leukemia
OVCAR-4 ovarian = system: OVCAR-4 ovarian
MCF7 breast = system: MCF7 breast
RXF 393 renal = system: RXF 393 renal
OVCAR-8 ovarian = system: OVCAR-8 ovarian
HOP-62 NSCLC = system: HOP-62 NSCLC
OVCAR-3 ovarian = system: OVCAR-3 ovarian
SK-OV-3 ovarian = system: SK-OV-3 ovarian

SMILES	GI50 (HOP-92 NSCLC) [µM]	TGI (HOP-92 NSCLC) [µM]	GI50 (A498 renal) [µM]	TGI (A498 renal) [µM]	GI50 (RPMI-8226 leukemia) [µM]	TGI (RPMI-8226 leukemia) [µM]	GI50 (OVCAR-4 ovarian) [µM]	TGI (OVCAR-4 ovarian) [µM]	GI50 (MCF7 breast) [µM]	TGI (MCF7 breast) [µM]	GI50 (RXF 393 renal) [µM]	TGI (RXF 393 renal) [µM]	GI50 (OVCAR-8 ovarian) [µM]	TGI (OVCAR-8 ovarian) [µM]	GI50 (HOP-62 NSCLC) [µM]	TGI (HOP-62 NSCLC) [µM]	GI50 (OVCAR-3 ovarian) [µM]	TGI (OVCAR-3 ovarian) [µM]	GI50 (SK-OV-3 ovarian) [µM]	TGI (SK-OV-3 ovarian) [µM]
COc1ccc2c(c1)c(C1(c3cn(C)c4ccc(OC)cc34)C(=O)Nc3ccc(F)cc31)cn2C	3.84	58.7	13.6	75.3	6.77	> 100	3.92	> 100	3.61	> 100	3.74	16.2	4.28	> 100	7.62	> 100	10.2	87.4	12.9	> 100
CCN(CC)CCOc1ccc(/C=C2\CC3C4CCC5=CC(=O)CC[C@]5(C)C4CC[C@]3(C)C2=O)cc1OC (some centres not stated)	3.14	7.51	1.99	8.48	1.79	5.03	10.6	> 100	3.02	13.7	1.85	4.56	4.09	18.2	2.5	6.37	2.37	5.07	2.66	8.46
O=C1C=C(Nc2ccccc2C(=O)CC(=O)C(=O)Nc2cccc(C(F)(F)F)c2)c2ccccc2C1=O		> 94.3		> 100		> 100		> 87.4		28.9		93.3		56.4		> 72.7		53.8		> 100
COc1cc(OC)c2c(=O)c(O)c(-c3ccc(OC)c(OC)c3)oc2c1		20.7		> 100		> 31.6		2.31		> 31.6		56.6		> 100		19.2		> 100		> 100
CO[C@@H]1[C@@H](OC2OC(C)C(OC3CC(C)(O)C(OC(=O)CC(C)C)C(C)O3)C(N(C)C)C2O)[C@@H](CC=O)C[C@@H](C)C(=O)/C=C/C2O[C@H]2C[C@@H](C)OC(=O)C[C@H]1OC(C)=O (some centres not stated)		27		52		47.4		86.7		30.7		64.7		> 100		37.8		40.5		> 100
O=C(Nc1ccc(Br)cc1)Nc1n[nH]c2ccccc12	> 86.3	> 100	> 100	> 100		> 100	56.7	> 100	42.1	> 100	> 62.8	> 100	71.2	> 100	> 100	> 100	> 100	> 100	> 33.7	> 100
COc1cc(CSc2nc3ccc(C)cc3c(=O)n2Cc2ccccc2)cc(OC)c1OC	1.44	7.42	2.14	12.4	2.96	> 100	5.01	63.4	0.587	22.8	2.29	9.75	4.41	> 100	3.21	21.4	0.956	7.02	2.86	17.8
CN1C(=O)CNC(=O)[C@H](NC(=O)c2nc3ccccc3cc2O)CSSC[C@H]1C(=O)NCCc1nc2ccccc2cc1O	> 100	> 100	> 100	> 100	14.5	62.3	25	> 73.1	6.23	27.4	13.9	36	20.8	53.9	17.6	53.4	4.61	18.2	> 100	> 100
CC(=O)OC1COC(S[As](C)C)C(OC(C)=O)C1OC(C)=O (configuration not stated)	0.0332	0.28	0.285	1.56		0.0245	2.53	24	0.165	5.2	0.338	2.9	0.735	5.31	2.29	14.9	< 0.0138	0.0404	1.81	17.3
CC1(C)N=C(N)N=C(N)N1c1ccc(F)c(C(F)(F)F)c1	12.4	> 100	9.84	> 100	3.42	> 100	22.6	> 100	0.998	> 100	> 31.5	> 100	0.597	> 100		> 100	5.62	> 100	10.7	> 100
Cn1c(COC(=O)N2CCCCC2)nc2c(N3CCOCC3)nc(-c3ccccc3)nc21	0.492	1.93	1.37	2.69	0.257	0.814	0.638	1.85	0.378	1.79	0.508	1.76	1.03	2.57	1.42	3.21	0.182	0.39	2.64	10.5
CCC[C@H](N[C@@H]1CCc2cc(F)cc(F)c2C1)C(=O)Nc1cn(C(C)(C)CNCC(C)(C)C)cn1	1.47	11.1	7.41	42.9	5.98	34.8	23.5	> 100	15.6	> 56.7	6.12	21.1	27.5	> 100	20.8	75.1	15.3	42.9	26.3	> 100
C#C[C@]1(O)CC[C@H]2[C@@H]3CC=C4c5sc(N=C(N)N)nc5CC[C@]4(C)[C@H]3CC[C@@]21C	0.842	2.37	0.274	1.02	0.153	0.864	1.33	2.75	0.391	1.88	0.141	0.555	1.63	4.53	0.984	2.62	1.36	2.82	1.05	2.33
C(=C1c2ccccc2-c2ccccc21)c1ccccn1	7.43	74.5	3.51	23.7	16.2	> 100	15.3	> 100	2.71	21.3	7.58	24.1	15.6	77.8	6.61	60.8	3.66	15.9	13.1	64.9
O=S1(=O)CCN(Cc2ccccn2)CC1		> 100		> 100		> 100		> 100		> 100		> 100		> 100		> 100		9.94		> 100
ClCCN(CCCl)c1ccc(-n2cnc3c(Cl)ncnc32)cc1	10.9	26.1	11.9	24.5	9.69	59.1	1.85	3.33	3.68	15.1	1.86	3.33	2.37	5.38	6.94	20.2	1.77	3.15	11	22.9
CC(C)(C)c1ccc([I+]c2ccc(C(C)(C)C)cc2)cc1	1.25	3.5	1.37	3.81	0.389	1.99	0.658	11	1.35	9.17	1.99	5.52	1.44	3.72	1.83	3.71	1.44	6.87	2.31	6.75
COC(CCP(=O)(c1ccccc1)c1ccccc1)(C(=O)c1ccccc1)c1ccccc1 (configuration not stated)	1.42	16.6	3.4	16.8	0.433	2.6	5.57	21.4	2.39	11.3	0.213	0.917	7.95	27.8	11	24.8	5.26	18.2	8.05	21.8
CC(ONC(=O)c1cc(C(F)(F)F)cc(C(F)(F)F)c1)C(=O)Nc1ccc(Cl)cc1 (configuration not stated)	2.77	7.21	3.35	14.5	2.27	6.98	4.64	> 100	3.38	16.5	5.95	35.6	6.2	> 62.1	8.45	24.6	4.25	> 76.6	12.9	> 85.8
COc1ccc(C(O)CNC(=O)c2ccccc2)cc1 (configuration not stated)		> 100		> 100		> 100		> 100		> 100		> 100		> 100		> 100		> 100		> 100
